Literature values as cited in US20060024422A1, “Salt substitute compositions having N-neohexyl-a-aspartyl-l- phenylalanine methyl ester for modifying flavor and methods of manufacturing the same” (Cumberland Packing Corp., priority 2004, published 2006).

Conditions: on a weight basis

COC(=O)[C@H](Cc1ccccc1)NC(=O)[C@H](CC(=O)O)NCCC(C)(C)C [neotame, N-[N-(3,3-dimethylbutyl)-L-α-aspartyl]-L-phenylalanine 1-methyl ester]
Sweetness relative to sucrose: approximately 8,000 times
